Experimental data reported in publication PMC5834492, “Antimycobacterial drug discovery using Mycobacteria-infected amoebae identifies anti-infectives and new molecular targets” (Scientific Reports, 2018).
Like-named read-outs stand apart in the source and are kept apart here.

Assays:
Mtb H37Rv in THP-1 = system: Mtb H37Rv in THP-1; parameters: method as in Sorrentino et al, 2015; settings: ref Sorrentino et al, 2015, cited from earlier work; for Extracellular MIC90/ Inracellular MIC90: ratio
D. discoideum GFP-ABD = settings: 10 µM
[1] = system: M. marinum in A. castellanii; assay type: cell-based, Mycobacterium marinum; settings: 10 µM
[2] = system: M. marinum in BV2 microglial cells; assay type: cell-based, Mycobacterium marinum; settings: for BV2 / M. marinum normalised growth, control=1.00, mean / hit in BV2/M. marinum assay True/False / anti-infective properties in microglial cell (BV2) infection assay: 10 µM
Mtb H37Rv = system: Mtb H37Rv; parameters: method as in Sorrentino et al, 2015; settings: ref Sorrentino et al, 2015; cited from earlier work
M. marinum luxCDABE = assay type: cell-based, Mycobacterium marinum; settings: 10 µM
M. marinum GFP = assay type: cell-based, Mycobacterium marinum; settings: for M. marinum GFP normalised growth, control=1.00, mean: 10 µM, antibiotic assay
[3] = THP1 / Mtb H37Rv infection assay

| SMILES | Intracelullar MIC90 in THP-1 (Mtb H37Rv in THP-1; Mtb H37Rv-infected THP1 cells) [µM] | Intracelullar MIC90 in THP-1 (Mtb H37Rv in THP-1; [3]) [µM] | Extracellular MIC90/ Inracellular MIC90 (Mtb H37Rv in THP-1) | D. discoideum GFP-ABD normalised growth, control=1.00, mean (D. discoideum GFP-ABD) | A. castellanii / M. marinum normalised growth, control=1.00, mean [1] | Hits A. castellanii/M. marinum assay True/False [1] | IC50 [2] [µM] | BV2 / M. marinum normalised growth, control=1.00, mean [2] | hit in BV2/M. marinum assay True/False [2] | Extracellular MIC90 (Mtb H37Rv) [µM] | M. marinum luxCDABE normalised growth, control = 1.00, mean (M. marinum luxCDABE) | M. marinum luxCDABE normalised growth, control=1.00, mean (M. marinum luxCDABE) | M. marinum GFP normalised growth, control=1.00, mean (M. marinum GFP) | D. discoideum GFP-ABD normalised growth, control = 1.00, mean (D. discoideum GFP-ABD) | A. castellanii/M. marinum normalised growth, control = 1.00, mean [1] | anti-infective properties in A. castellanii infection assay [1] | anti-infective properties in microglial cell (BV2) infection assay [2] | antibiotic activity in M. marinum growth assay (M. marinum GFP; broth) |
| --- | --- | --- | --- | --- | --- | --- | --- | --- | --- | --- | --- | --- | --- | --- | --- | --- | --- | --- |
| Cc1ccc2nc(C(F)(F)F)c(C(=O)NCc3cc(Cl)cc(Cl)c3)n2c1 [GSK1829736A] | 0.61 | 0.61 | 1.47 | 0.93 | 0.60 | FALSE | 2.21 | 0.41 | TRUE | 0.9 | 0,00 | 0.00 | 0.04 | – | – | – | – | – |
| Cc1ccc2nc(C)c(C(=O)NCC(C)C)n2c1 [GSK1829816A] | – | 16.65 | 0.46 | 1.03 | 1.01 | – | 4.09 | 0.61 | – | 7.7 | – | 0.08 | 0.20 | – | – | – | – | – |
| Cc1ccc2nc(C)c(C(=O)NCc3ccco3)n2c1 [GSK1829819A] | 0.61 | 0.61 | 2.13 | 1.08 | 0.66 | FALSE | 3.9 | 0.37 | TRUE | 1.3 | 0,00 | 0.00 | 0.08 | 1,08 | – | – | – | – |
| CCN(Cc1ccc2c(c1)OCO2)C(=O)CSc1nc(NC)c2ccccc2n1 [GSK1859936A] | – | 16.65 | 0.17 | 1.00 | 1.03 | – | 4.14 | 0.63 | – | 2.8 | – | 0.07 | 0.54 | – | – | – | – | – |
| CNc1nc(SCC(=O)N(C)Cc2ccc(Cl)s2)nc2ccccc12 [GSK1925843A] | 16.65 | 16.65 | 0.34 | 1.10 | 1.12 | FALSE | 3.83 | 0.43 | TRUE | 5.6 | 0,00 | 0.00 | 0.70 | 1,10 | 1,12 | – | – | – |
| Clc1ccc(CCNc2cc(-c3ccccc3)nc3ncnn23)cc1 [GSK1955236A] | – | 1.85 | 0.81 | 0.93 | 1.32 | – | 5.69 | 0.80 | – | 1.5 | – | 0.00 | 0.66 | – | – | – | – | – |
| Cc1ccccc1CN1CCC(O)(c2ccc(Cl)c(C(F)(F)F)c2)CC1 [GSK1985270A] | 0.21 | 0.21 | 20 | 0.99 | -0.06 | TRUE | 4.88 | 0.45 | TRUE | 4.2 | 0,00 | 0.00 | 0.09 | – | – | strong anti-infective properties | strong anti-infective properties | – |
| COc1ccc(-c2nc(-c3cccc(NC(=O)Cc4ccc(F)cc4)c3)no2)cc1OC [GSK2043267A] | – | 0.21 | 17.62 | 1.18 | 0.86 | – | 6.69 | 0.77 | – | 3.7 | – | 0.00 | 0.97 | – | – | – | – | strong antibiotic activity |
| Cc1n[nH]c(C)c1S(=O)(=O)NCc1nc(NCCCc2ccccc2)c2ccccc2n1 [GSK2059310A] | – | 5.55 | 0.32 | 0.84 | 1.06 | – | 4.65 | 0.57 | – | 1.8 | – | 0.00 | 0.46 | – | – | – | – | – |
| CCCCS(=O)(=O)Nc1ccc2cnn(C)c2c1 [GSK3011724A] | 0.21 | 0.21 | 6.19 | 0.99 | -0.32 | TRUE | 4.44 | 0.40 | TRUE | 1.3 | – | 0.14 | 0.08 | – | – | strong anti-infective properties | strong anti-infective properties | – |
| Nc1cc(OCc2ccccc2)ccc1Nc1ccccc1 [GV187303X] | – | 50 | 0.19 | 0.89 | 1.05 | – | 5.44 | 0.55 | – | 9.4 | – | 0.90 | 0.71 | – | – | – | – | – |
| Nc1nc(N)c2c(Sc3ccc4ccccc4c3)cccc2n1 [GW369335X] | 5.55 | 5.55 | 1.57 | 0.97 | 0.37 | TRUE | 4.87 | 0.71 | FALSE | 8.7 | – | 0.20 | 0.14 | – | – | – | – | – |
| O=C(NC12CC3CC(CC(C3)C1)C2)c1cc2cc(Cl)ccc2[nH]1 [GW623128X] | – | 0.07 | 14.28 | 1.06 | 0.51 | – | 4.92 | 0.66 | – | 1 | – | 0.00 | 0.86 | – | – | – | – | – |
| Cc1cc(OCC(=O)Nc2ccccc2)c2cc(Br)ccc2n1 [GW857165X] | – | 16.65 | 0.2 | 0.90 | 0.83 | – | 3.52 | 0.72 | – | 3.3 | – | 0.00 | 0.81 | – | – | – | – | – |
| O=C(C=Cc1cccs1)N1CCN(Cc2ccc3c(c2)OCO3)CC1 [GW861072X] | 0.61 | 0.61 | 0.49 | 0.68 | 0.54 | FALSE | 7.99 | 0.48 | TRUE | 0.3 | 0,00 | 0.00 | 0.05 | – | – | – | – | – |
| Nc1ccccc1Nc1ccc2c(c1)OCO2 [SB-435634] | – | 5.55 | 0.32 | 1.14 | 1.04 | – | 11.4 | 0.63 | – | 1.8 | – | 1.00 | 1.08 | – | – | – | – | – |
